How the values were obtained:
[1] = test system: human bladder epithelial cells; assay: Intracellular cAMP enzyme immunoassay; assay type: cell-based
Procedure: In this example, the effect of bacterial lipopolysccharide (LPS), a Toll-like Receptor 4 (TLR4) ligand, on intracellular levels of cAMP was assessed in human bladder epithelial cells (BECs). Methods are as described in Song et al. (2007) PLoS Pathog. 3(4):e60. BECs were seeded onto 6-well plates and grown overnight. The cells were treated with […] E. coli LPS for 6 h at 37° C., followed by washing four times with PBS to remove culture media, followed by an addition of […] of 0.1 M HCl. After a 10 min incubation, the cell lysate was centrifuged and the supernatant was used directly in the cAMP assay. Intracellular concentrations of cAMP were determined using a cAMP enzyme immunoassay kit (Sigma) according to the manufacturer's instructions.

phosphodiesterases = settings: read-out: IC50, non-specific inhibitor of phosphodiesterases; cited from earlier work
[2] = test system: E. coli-infected human bladder epithelial cells (BECs); assay: Intracellular bacterial levels in BECs; assay type: cell-based; settings: single agent, presented as % of control in figures
Procedure: Intracellular bacterial levels in BECs were measured in untreated BECs and in BECs treated with forskolin, various PDE inhibitors, and a combination of forskolin with a PDE inhibitor. Several PDE inhibitors were used, including both broadly active PDE inhibitors that block PDEs in a non-specific manner as well as specific PDE inhibitors that block only certain PDEs.

5637 BECs = assay: β-hexosaminidase release assay; assay type: cell-based, human; settings: uninfected 5637 BECs, 1 hr; forskolin 100 μM, dibutyryl-cAMP 1 mM, calcium ionophore 1 μM
E. coli CI5 [3] = assay: In vivo bladder infection, 2-h-long infection, intracellular bacterial CFU; set-up: species or system mouse; settings: BALB/c mice, forskolin 2 h after infection, i.p. 10 mg/kg and by catheter 100 μM
Procedure: (§1) In this procedure, 8-week-old female BALB/c mice were anesthetized with sodium pentobarbital and then inoculated transurethrally with 50 μl of either E. coli CI5 or a bacterial suspension (approximately 1.0×10^8 CFU) suspended in PBS. After 2 h, the bladders were removed aseptically. Then the bladders were either bisected and fixed with 2% paraformaldehyde plus 2% gluteraldehyde in PBS (for transmission electron microscopy) or frozen for immunofluorescence microscopy. For the 2-h-long infections with E. coli and S. enterica SL1344, BALB/c mice were infected as above. After 2 h, the mice were intraperitoneally injected with 100 μl PBS (with or without 10 mg/kg forskolin) and intravesicularly instilled, for 1 h, with 100 μg/ml gentamicin in PBS (with or without 100 μM forskolin). For the 24-h-long infections, BALB/c mice were infected. After 24 h, the mice were intravesicularly instilled with 50 μl of PBS (with or without 100 μM forskolin) for 1 h. The 100 μM forskolin in PBS was replaced by 100 μg/ml gentamicin in PBS for 30 min. The bladders were then removed aseptically and homogenized them in 0.1% Triton X-100 in PBS. Homogenate dilutions were plated for colony counts.

S. enterica SL1344 = assay: as above; set-up: species or system mouse; settings: BALB/c mice, forskolin 2 h after infection, i.p. 10 mg/kg and by catheter 100 μM
Procedure: as §1

bacteria = assay: Bacterial viability (data not shown)
[4] = test system: fusiform vesicles of mouse bladder BECs; assay: Immunofluorescence of bladder sections (Rab27b); assay type: in vivo; settings: mouse bladders, antibodies to Rab27b, forskolin 100 μM 1 h
Procedure: Balb/c mice were either infected with E. coli CI5 as above, or they were treated with either 100 μM forskolin or PBS for 1 h through a catheter. Frozen sections of these bladders were cut using standard methods. Each section was fixed in 100% ethanol for 20 min at −20° C., and blocked in PBS with 1% BSA for 1 h at 4° C. Sections were incubated overnight at 25° C. with primary antibodies to either Rab27b (Santa Cruz Biotechnology, Inc., Santa Cruz, Calif.) or UPIII (Santa Cruz Biotechnology), and washed. Sections were incubated for 1 h at room temperature with secondary antibodies, and washed. To visualize the nuclei, the sections were incubated with Hoechst-33258 for 5 min at room temperature and then washed. All dilutions and washes were with PBS and 1% BSA. Coverslips were viewed as described previously.

E. coli CI5 [5] = assay: In vivo bladder infection, 24-h-long infection, intravesicular forskolin; set-up: species or system mouse; settings: Balb/c mice
Procedure: as §1

E. coli CI5 [6] = assay: In vivo bladder infection with 3-d-long forskolin regimen; set-up: species or system mouse; settings: C3H/HeJ mice, forskolin 10 mg/kg i.p. at 6, 24 and 48 h; at 72 h; P≦0.03
Procedure: In this procedure, 8-week-old female C3H/HeJ mice were infected with E. coli CI5 as above. At 6, 24 and 48 h after infection, the mice were intraperitoneally injected with 100 μl PBS, with or without 10 mg/kg forskolin. At 72 h after infection, bladders were aseptically removed and plated for colony counts.

IL-6 = IL-6 ELISA of urine; assay type: in vivo, mouse
Procedure: In this assay, 8-week-old female C3H/HeJ mice were infected with E. coli CI5 as above. After 6 h, the mice were intraperitoneally injected with 100 μl of PBS, with or without 10 mg/kg forskolin. Urine was collected at 6 and 24 h after infection, using clean catch methods, and the samples were stored at −80° C. The concentration of IL-6 in the urine was determined using the mouse IL-6 ELISA kit (eBioscience, San Diego, Calif.) according to the manufacturer's protocol.

[7] = test system: E. coli ORN103(pSH2) invasion into 5637 BECs; assay: Gentamicin protection assay, UPEC invasion; assay type: cell-based, human; settings: dilution 1:10
Procedure: (§2) A gentamicin protection assay, including 5637 BECs on 96-well plates (40,000 cells/well), was used to determine the effect of forskolin on UPEC invasion. In this example, the UPEC was either J96 or E. coli ORN103(pSH2). 50 μM forskolin was administered as a pretreatment for 15 min before infection or administered at the same time as the bacteria.

[8] = test system: UPEC J96 invasion into 5637 BECs; assay: Gentamicin protection assay, UPEC invasion; assay type: cell-based, human; settings: dilution 1:10
Procedure: as §2

UPEC strain CI5 = assay: In vivo gentamicin protection assay, UPEC colonization of the bladder; set-up: species or system mouse; settings: IP Fsk/Cather Fsk, 1 hr treatment
Procedure: An in vivo gentamicin protection assay was used to determine the effect of forskolin on UPEC colonization of the bladder. In this example, UPEC strain CI5 was injected into the bladder via catheter to initiate a urinary tract infection. After 2 hours of infection, the mice were re-catheterized, the urine was removed, and the bladder was treated with 100 uM forskolin in PBS for 1 hour. After the forskolin treatment, 100 ug/ml gentamicin in PBS was injected into the bladder via catheter for 30 minutes. The bladders were then removed, washed in sterile PBS, and homogenized. The homogenates were plated on LB agar for overnight colony counts at various dilutions. Control mice were treated with PBS alone instead of forskolin plus PBS. The top half of Table 3 represents the raw colony counts while the bottom half of Table 3 represents the calculated bladder load of UPEC strain C15 based on the dilutions.

[9] = SH2, 50 μM forskolin at the same time as the bacteria
[10] = SH2, 50 μM forskolin pretreatment 15 min before infection
[11] = J96, 50 μM forskolin at the same time as the bacteria
[12] = J96, 50 μM forskolin pretreatment 15 min before infection

CC(C)Cn1c(=O)n(C)c(=O)c2[nH]cnc21 [IBMX, 3-Isobutyl-1-methylxanthine]
intracellular cAMP levels compared to untreated controls [1]: significantly increases
IC50 (phosphodiesterases): 2 to 50 µM

CCCCCCCCCCCCCC(=O)O[C@@H]1[C@@H](C)[C@@]2(O)[C@@H](C=C(CO)C[C@]3(O)C(=O)C(C)=C[C@@H]23)[C@@H]2C(C)(C)[C@]12OC(C)=O [PMA, phorbol myristate acetate]
bacterial loads / intracellular bacterial numbers in BECs [2]: significantly reduced

C=C[C@@]1(C)CC(=O)[C@]2(O)[C@@]3(C)[C@@H](O)CCC(C)(C)[C@@H]3[C@H](O)[C@H](OC(C)=O)[C@@]2(C)O1 [forskolin]
release of β-hexosaminidase into extracellular media (5637 BECs): stimulated the BECs to release appreciable levels of β-hexosaminidase
intracellular E. coli CI5 eliminated (E. coli CI5 [3]): over 99%
effect on intracellular S. enterica SL1344 (S. enterica SL1344): no effect
effect on bacterial viability (bacteria): no effect
translocation of fusiform vesicles to the apical plasma membrane [4]: translocation of fusiform vesicles to the apical plasma membrane of mouse bladders was detected
reduction in the number of E. coli CI5 within bladder compared to saline-treated controls (E. coli CI5 [5]; intravesicular forskolin 100 μM 24 h after infection, P≦0.033): 79.4%
mice harboring >10^5 bacteria in their bladders (E. coli CI5 [5]; intravesicular forskolin 24 h after infection, control 33%, P≦0.01): 4.1%
decrease of average bacterial load within the bladders compared to control mice (E. coli CI5 [6]): 56%
decrease in urine IL-6 (IL-6; E. coli CI5-infected C3H/HeJ mice, 18 h after forskolin 10 mg/kg i.p., P≦0.0003): 99.6%
IL-6 levels in uninfected mice (IL-6; forskolin treatment alone, uninfected mice): did not alter IL-6 levels
intracellular bacteria, Mean [7, 9]: 10575 colony counts
intracellular bacteria, replicate 1 [7, 9]: 10980 colony counts
intracellular bacteria, replicate 2 [7, 9]: 8260 colony counts
intracellular bacteria, replicate 3 [7, 9]: 14140 colony counts
intracellular bacteria, replicate 4 [7, 9]: 8920 colony counts
intracellular bacteria, Mean [7, 10]: 9553 colony counts
intracellular bacteria, replicate 1 [7, 10]: 8860 colony counts
intracellular bacteria, replicate 2 [7, 10]: 9060 colony counts
intracellular bacteria, replicate 3 [7, 10]: 10740 colony counts
intracellular bacteria, Mean [8, 11]: 545 colony counts
intracellular bacteria, replicate 1 [8, 11]: 800 colony counts
intracellular bacteria, replicate 2 [8, 11]: 640 colony counts
intracellular bacteria, replicate 3 [8, 11]: 460 colony counts
intracellular bacteria, replicate 4 [8, 11]: 280 colony counts
intracellular bacteria, Mean [8, 12]: 535 colony counts
intracellular bacteria, replicate 1 [8, 12]: 720 colony counts
intracellular bacteria, replicate 2 [8, 12]: 140 colony counts
intracellular bacteria, replicate 3 [8, 12]: 200 colony counts
intracellular bacteria, replicate 4 [8, 12]: 1080 colony counts
Percent Control (bladder load), Average (UPEC strain CI5): 0.41%
Percent Control (bladder load), mouse 1 (UPEC strain CI5): 0.45%
Percent Control (bladder load), mouse 2 (UPEC strain CI5): 0.22%
Percent Control (bladder load), mouse 3 (UPEC strain CI5): 0.56%
raw colony counts of bladder homogenate, Average (UPEC strain CI5): 83 colony counts
calculated bladder load of UPEC strain CI5, Average (UPEC strain CI5; based on the dilutions): 1653 colony counts
calculated bladder load of UPEC strain CI5, mouse 1 (UPEC strain CI5; based on the dilutions): 1820 colony counts
calculated bladder load of UPEC strain CI5, mouse 2 (UPEC strain CI5; based on the dilutions): 900 colony counts
calculated bladder load of UPEC strain CI5, mouse 3 (UPEC strain CI5; based on the dilutions): 2240 colony counts
raw colony counts of bladder homogenate, mouse 1 (UPEC strain CI5; dilution 1:1): 91 colony counts
raw colony counts of bladder homogenate, mouse 2 (UPEC strain CI5; dilution 1:1): 45 colony counts
raw colony counts of bladder homogenate, mouse 3 (UPEC strain CI5; dilution 1:1): 112 colony counts

From patent US20140128399A1, “METHODS AND COMPOSITIONS FOR TREATING URINARY TRACT INFECTIONS USING AGENTS THAT MIMIC OR ELEVATE CYCLIC AMP” (DUKE UNIVERSITY, priority 2007, published 2014)
